In general, pIC50 refers to the IC50 on a negative log10 scale, so that one unit is a factor of ten. Usually pKd stands for the Kd on a negative log10 scale, so that one unit is a factor of ten. As a reminder, the Emax is the size of the effect at its maximum, as opposed to the concentration needed. As usually defined, the pEC50 is −log10 of the EC50, conventionally taken in molar units. Low values mean a high EC50, high ones a low EC50.

Experimental findings from ChEMBL document CHEMBL5360652, “Drug Discovery Targeting Nuclear Receptor Binding SET Domain Protein 2 (NSD2)” (J Med Chem, 2023) are described below.

The target in assay [1] is T1, Histone-lysine N-methyltransferase NSD3 (Homo sapiens, UniProt Q9BZ95).
T1 sequence (Q9BZ95 whole entry): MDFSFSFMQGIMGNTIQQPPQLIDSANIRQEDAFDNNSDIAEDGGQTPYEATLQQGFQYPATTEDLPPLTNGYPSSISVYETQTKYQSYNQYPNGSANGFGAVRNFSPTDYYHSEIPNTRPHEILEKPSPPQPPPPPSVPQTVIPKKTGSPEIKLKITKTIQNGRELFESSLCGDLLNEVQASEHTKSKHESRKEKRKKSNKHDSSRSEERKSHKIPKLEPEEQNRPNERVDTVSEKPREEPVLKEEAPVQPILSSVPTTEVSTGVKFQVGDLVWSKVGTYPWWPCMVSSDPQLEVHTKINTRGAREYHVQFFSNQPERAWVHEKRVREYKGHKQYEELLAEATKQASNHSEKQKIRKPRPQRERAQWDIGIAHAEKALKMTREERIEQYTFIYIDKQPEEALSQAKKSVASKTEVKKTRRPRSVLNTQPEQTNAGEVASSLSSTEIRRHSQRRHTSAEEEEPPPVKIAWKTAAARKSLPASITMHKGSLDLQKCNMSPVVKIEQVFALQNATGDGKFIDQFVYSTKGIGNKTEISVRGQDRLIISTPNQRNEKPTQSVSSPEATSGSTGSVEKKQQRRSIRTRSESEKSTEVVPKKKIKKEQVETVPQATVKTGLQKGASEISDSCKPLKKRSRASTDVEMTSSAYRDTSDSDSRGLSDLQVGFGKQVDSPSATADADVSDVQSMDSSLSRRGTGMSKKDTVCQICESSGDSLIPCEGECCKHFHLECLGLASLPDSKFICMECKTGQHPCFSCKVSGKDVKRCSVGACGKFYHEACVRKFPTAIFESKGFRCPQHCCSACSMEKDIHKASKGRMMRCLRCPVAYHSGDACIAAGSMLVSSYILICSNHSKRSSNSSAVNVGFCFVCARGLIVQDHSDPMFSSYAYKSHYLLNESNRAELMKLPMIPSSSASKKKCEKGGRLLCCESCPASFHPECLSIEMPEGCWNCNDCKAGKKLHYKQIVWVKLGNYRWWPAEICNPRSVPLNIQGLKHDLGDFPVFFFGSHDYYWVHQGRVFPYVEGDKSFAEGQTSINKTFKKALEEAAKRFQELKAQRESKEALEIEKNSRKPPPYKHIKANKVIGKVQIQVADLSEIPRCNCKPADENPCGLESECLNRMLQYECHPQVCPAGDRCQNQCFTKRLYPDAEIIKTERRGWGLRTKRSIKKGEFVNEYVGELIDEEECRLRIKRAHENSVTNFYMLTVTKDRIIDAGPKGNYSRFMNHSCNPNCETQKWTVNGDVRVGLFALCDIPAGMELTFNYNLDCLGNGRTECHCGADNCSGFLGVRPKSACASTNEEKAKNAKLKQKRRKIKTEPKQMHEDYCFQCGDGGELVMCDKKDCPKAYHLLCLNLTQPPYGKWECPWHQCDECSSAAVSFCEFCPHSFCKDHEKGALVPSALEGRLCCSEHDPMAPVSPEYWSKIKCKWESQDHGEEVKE
Briefly: Antagonist activity against recombinant human GST-tagged NSD3 PWWP1 domain (247 to 398 residues) expressed in Escherichia coli BL21(DE3) incubated for 60 mins by TR-FRET assay. Background: Time-resolved FRET reads energy transfer from a long-lived donor to a nearby acceptor.

Assay [2] has as its system Respiratory syncytial virus. The assay can be described thus: Antiviral activity against RSV assessed as viral growth inhibition. The format is functional, organism-based. Conditions: human respiratory syncytial virus.
Assay [3] deals with T2, Histone-lysine N-methyltransferase, H3 lysine-36 specific (Homo sapiens, UniProt Q96L73). Briefly: Binding affinity to NSD1 (unknown origin) assessed as dissociation constant by ITC assay. A general note: ITC needs no label: the signal is the heat of the interaction.
T2 sequence (Q96L73 whole entry, the tested form may be a part): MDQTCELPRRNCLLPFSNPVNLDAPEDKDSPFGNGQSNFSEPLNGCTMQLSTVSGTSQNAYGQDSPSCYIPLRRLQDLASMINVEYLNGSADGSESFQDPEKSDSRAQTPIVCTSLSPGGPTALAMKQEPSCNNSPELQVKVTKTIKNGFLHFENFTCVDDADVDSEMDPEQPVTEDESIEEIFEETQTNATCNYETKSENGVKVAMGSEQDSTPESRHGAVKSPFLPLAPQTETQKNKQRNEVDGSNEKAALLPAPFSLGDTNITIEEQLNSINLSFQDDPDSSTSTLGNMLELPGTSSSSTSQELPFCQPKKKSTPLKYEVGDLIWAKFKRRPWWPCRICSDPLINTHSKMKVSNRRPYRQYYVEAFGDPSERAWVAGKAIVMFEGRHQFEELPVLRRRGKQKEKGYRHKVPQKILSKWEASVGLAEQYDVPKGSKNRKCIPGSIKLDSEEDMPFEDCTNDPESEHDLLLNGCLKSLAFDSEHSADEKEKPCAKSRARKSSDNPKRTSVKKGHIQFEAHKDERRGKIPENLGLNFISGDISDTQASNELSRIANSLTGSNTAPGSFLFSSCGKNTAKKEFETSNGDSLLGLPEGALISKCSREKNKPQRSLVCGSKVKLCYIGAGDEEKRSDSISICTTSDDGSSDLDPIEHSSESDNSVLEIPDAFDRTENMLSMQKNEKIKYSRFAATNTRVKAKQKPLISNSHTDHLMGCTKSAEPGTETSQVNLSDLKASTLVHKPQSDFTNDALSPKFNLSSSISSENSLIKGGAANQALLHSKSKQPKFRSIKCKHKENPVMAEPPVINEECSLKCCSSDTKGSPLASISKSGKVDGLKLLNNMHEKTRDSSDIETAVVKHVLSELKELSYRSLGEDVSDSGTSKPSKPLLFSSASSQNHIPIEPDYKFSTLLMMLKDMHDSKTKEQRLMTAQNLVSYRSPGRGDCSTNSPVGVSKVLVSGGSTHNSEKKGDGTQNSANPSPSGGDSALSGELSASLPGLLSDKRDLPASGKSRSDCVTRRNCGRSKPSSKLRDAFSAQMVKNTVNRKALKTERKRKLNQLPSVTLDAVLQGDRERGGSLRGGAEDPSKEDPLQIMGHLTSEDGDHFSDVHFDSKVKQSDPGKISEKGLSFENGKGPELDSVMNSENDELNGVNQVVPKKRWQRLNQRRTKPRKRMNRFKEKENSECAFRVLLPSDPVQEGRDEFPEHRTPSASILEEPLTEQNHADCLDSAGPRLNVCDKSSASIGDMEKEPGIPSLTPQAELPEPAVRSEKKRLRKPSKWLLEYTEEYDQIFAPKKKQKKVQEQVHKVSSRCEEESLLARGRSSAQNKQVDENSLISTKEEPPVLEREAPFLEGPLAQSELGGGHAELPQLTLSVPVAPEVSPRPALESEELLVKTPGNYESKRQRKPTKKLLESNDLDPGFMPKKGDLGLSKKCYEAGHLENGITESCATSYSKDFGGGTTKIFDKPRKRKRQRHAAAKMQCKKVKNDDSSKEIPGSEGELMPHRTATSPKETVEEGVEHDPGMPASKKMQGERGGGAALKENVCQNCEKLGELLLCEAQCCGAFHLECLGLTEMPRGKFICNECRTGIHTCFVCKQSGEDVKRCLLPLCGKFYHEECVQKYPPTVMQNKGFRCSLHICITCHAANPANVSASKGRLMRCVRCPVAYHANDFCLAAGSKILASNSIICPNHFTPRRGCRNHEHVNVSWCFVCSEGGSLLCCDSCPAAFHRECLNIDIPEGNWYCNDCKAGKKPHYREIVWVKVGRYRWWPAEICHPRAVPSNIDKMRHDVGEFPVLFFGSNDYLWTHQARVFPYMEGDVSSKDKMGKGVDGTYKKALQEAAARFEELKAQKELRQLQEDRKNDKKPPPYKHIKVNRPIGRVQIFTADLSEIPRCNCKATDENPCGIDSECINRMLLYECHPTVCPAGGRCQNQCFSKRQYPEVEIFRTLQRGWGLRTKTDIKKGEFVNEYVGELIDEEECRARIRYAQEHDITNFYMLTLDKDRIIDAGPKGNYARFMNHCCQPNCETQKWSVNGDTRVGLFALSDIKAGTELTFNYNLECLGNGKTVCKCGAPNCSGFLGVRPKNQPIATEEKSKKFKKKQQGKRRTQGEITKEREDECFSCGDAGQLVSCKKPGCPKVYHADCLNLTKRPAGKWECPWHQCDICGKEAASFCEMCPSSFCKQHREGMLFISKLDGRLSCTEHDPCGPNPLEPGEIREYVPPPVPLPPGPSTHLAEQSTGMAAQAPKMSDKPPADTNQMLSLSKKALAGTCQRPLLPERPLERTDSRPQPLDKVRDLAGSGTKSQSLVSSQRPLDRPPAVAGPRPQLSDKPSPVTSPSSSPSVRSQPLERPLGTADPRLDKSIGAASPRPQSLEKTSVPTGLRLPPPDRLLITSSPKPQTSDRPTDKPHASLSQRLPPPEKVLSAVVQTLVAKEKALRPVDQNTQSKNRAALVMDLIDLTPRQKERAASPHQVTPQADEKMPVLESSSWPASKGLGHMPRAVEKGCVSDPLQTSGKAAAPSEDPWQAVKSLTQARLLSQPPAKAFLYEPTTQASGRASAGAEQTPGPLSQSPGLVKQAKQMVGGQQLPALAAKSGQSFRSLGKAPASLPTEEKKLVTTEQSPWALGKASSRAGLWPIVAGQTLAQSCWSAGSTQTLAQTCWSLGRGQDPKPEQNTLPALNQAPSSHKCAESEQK
Assay [4] has as its target T2, Histone-lysine N-methyltransferase, H3 lysine-36 specific. Briefly: Inhibition of NSD1 SET domain (1852 to 2105 residues) (unknown origin) expressed in Escherichia coli BL21 (DE3).
For assay [5] the target is unchanged. The assay can be described thus: Inhibition of human recombinant NSD1 incubated for 2 hrs by AlphaLISA method. A general note: In Alpha technology, singlet oxygen from a donor bead excites a nearby acceptor bead.
Assay [6] has the same target. The assay can be described thus: Inhibition of N-terminal hexa-histidine tagged NSD1 SET domain (1852 to 2105 residues) (unknown origin) expressed in Escherichia coli incubated for 2 hrs by ITC method.
Assay [7] has as its target T3, Histone-lysine N-methyltransferase NSD2 (Homo sapiens) (UniProt O96028).
T3 sequence (whole entry): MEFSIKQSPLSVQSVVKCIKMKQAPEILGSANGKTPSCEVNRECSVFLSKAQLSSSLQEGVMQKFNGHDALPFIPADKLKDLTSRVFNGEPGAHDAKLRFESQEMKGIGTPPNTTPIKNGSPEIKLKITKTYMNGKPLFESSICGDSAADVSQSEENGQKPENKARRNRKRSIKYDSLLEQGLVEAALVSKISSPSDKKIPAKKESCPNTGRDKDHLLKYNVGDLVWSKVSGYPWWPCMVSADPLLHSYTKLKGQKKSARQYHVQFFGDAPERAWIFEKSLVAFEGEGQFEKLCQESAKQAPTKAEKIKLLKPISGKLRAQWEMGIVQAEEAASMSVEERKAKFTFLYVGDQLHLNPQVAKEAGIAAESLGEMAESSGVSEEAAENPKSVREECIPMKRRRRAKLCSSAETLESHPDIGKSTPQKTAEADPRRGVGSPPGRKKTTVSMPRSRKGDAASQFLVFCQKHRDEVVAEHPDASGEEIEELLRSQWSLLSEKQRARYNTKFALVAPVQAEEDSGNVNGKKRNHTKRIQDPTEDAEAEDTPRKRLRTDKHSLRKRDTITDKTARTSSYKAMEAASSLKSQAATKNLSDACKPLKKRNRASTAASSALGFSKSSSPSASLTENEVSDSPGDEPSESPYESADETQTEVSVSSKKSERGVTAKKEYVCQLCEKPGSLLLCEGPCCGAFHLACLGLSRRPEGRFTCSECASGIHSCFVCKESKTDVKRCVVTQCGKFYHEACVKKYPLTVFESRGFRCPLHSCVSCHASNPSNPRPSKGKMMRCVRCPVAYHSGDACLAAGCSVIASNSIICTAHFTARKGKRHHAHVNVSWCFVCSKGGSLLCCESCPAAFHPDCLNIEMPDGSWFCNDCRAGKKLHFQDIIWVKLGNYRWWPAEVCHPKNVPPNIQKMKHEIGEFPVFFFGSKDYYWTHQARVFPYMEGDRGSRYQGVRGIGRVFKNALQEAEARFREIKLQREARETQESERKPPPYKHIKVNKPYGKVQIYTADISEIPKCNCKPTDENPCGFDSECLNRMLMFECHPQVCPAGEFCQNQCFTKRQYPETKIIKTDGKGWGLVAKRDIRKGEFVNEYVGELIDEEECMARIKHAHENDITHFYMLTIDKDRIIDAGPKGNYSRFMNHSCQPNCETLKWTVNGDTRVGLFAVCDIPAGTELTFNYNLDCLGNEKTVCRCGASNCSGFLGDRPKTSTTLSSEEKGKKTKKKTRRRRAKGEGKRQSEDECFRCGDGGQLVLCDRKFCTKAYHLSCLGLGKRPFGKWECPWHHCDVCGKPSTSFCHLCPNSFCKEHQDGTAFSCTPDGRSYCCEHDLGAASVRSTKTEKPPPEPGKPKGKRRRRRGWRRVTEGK
Briefly: Induction of degradation of NSD2 in human U2OS cells assessed as maximum degradation relative to control. In kind it is cell-based.

For assay [8], the target named is T4, Histone-lysine N-methyltransferase NSD2 (Homo sapiens, UniProt O96028).
T4 sequence (O96028 whole entry): T3 sequence (whole entry)
Briefly: Induction of degradation of NSD2 in human U2OS cells. In kind it is cell-based.

For assay [9], the target named is T4, Histone-lysine N-methyltransferase NSD2. Briefly: Binding affinity to NSD2 PWWP1 domain (unknown origin) assessed as dissociation constant by SPR assay.
The target is the same in assay [10]. The assay can be described thus: Inhibition of NSD2 (unknown origin).
Assay [11] shares this target. The assay can be described thus: Binding affinity to NSD2 PWWP1 domain (unknown origin) assessed as dissociation constant.

pEC50, pIC50, pKd: −log10 of the molar value. Counter-ions that a name gives are not always drawn.

In the case of `Cc1cc(CN2CCC(N)CC2)cc(C)c1-c1ncn(C)c1-c1ccc(C#N)c2ccccc12`, the negative logarithm of the IC50 (pIC50) in [1] is 6.96; in assay [2], 5.20.
With `O=C1c2c(O)ccc(O)c2C(=O)C2C(NCCNCCO)=CC=C(NCCNCCO)C12` (stereo unspecified), in [3], the pKd is 5.92.
For the molecule `O=C1O[C@@H](C(=O)N2CCN(Cc3nc4sc5c(c4c(=O)[nH]3)CCCC5)CC2)Cc2ccccc21`, in [4], the pIC50 is below 3.00.
`CCN(CC)CCCC(C)Nc1c2ccc(Cl)cc2nc2ccc(OC)cc12` (stereo unspecified) [QUINACRINE DIHYDROCHLORIDE]: the pKd in assay [3] was 5.85.
On to `COC[C@@]1(N)CCCN(c2cnc(-c3ccc(F)cc3F)cc2Cn2cnc3c(N)ncnc32)C1`, for which the negative logarithm of the IC50 (pIC50) in assay [5] is 6.65.
For the molecule `CCN(CC)CCCC(C)Nc1ccnc2cc(Cl)ccc12` (stereo unspecified) [CHLOROQUINE PHOSPHATE], the pKd in assay [3] was 5.33.
As for `N#CSc1cc(O)c2nc(N)sc2c1`, in assay [6], the pIC50 is above 4.70.
`COC[C@@]1(N)CCCN(c2cnc(-c3ccc(F)c(F)c3)cc2Cn2cnc3c(N)ncnc32)C1`: the pIC50 in [5] was 6.80.
Consider `NCCCCCCNC(=O)c1ccc(NC(=O)c2ccc(CN(C(=O)c3ccc4c(c3)OCC(=O)N4)C3CC3)cc2)cc1`, for which the Emax in assay [7] was 79%. This molecule also had a pEC50 in assay [8] of 6.46.
Regarding `N=C(N)NCCC[C@H](N)C(=O)NCCCCCCNC(=O)c1ccc(NC(=O)c2ccc(CN(C(=O)c3ccc4c(c3)OCC(=O)N4)C3CC3)cc2)cc1`, the maximal effect (Emax) in assay [7] was determined as 81%. Further, in [9], the pKd was 7.85. Besides, the negative logarithm of the EC50 (pEC50) in [8] was 5.92.
`Cn1nnc2cc(NC(=O)Nc3cccc([N+](=O)[O-])c3)ccc21` had a negative logarithm of the IC50 (pIC50) in assay [10] of 5.08.
For the molecule `O=C1COc2cc(C(=O)N(Cc3cccs3)C3CC3)ccc2N1`, the pKd in assay [11] was 5.47.
